Results on 47 molecules are retold here after patent US6979686B1, “Substituted pyrazoles as p38 kinase inhibitors” (Pharmacia Corporation, priority 2001, dated 2005).

Molecules are shown by their SMILES. pIC50: −log10 of the molar value.

For the assay, the target named is T1, human p38 kinase alpha (Homo sapiens, UniProt Q16539).
T1 construct: GST (N, cleaved yes); made in house; host or cells: E. coli DH10B
T1 sequence (Q16539 whole entry): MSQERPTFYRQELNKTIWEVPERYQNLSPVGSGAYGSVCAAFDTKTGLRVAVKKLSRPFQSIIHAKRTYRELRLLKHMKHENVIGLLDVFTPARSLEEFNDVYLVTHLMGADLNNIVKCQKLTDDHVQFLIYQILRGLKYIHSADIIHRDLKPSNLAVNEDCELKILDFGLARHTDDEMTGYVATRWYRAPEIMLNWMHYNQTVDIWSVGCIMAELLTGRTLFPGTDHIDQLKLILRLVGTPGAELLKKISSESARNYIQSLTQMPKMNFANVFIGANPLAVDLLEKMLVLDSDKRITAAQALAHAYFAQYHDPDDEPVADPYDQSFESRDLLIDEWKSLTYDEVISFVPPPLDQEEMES
Description: p38 kinase in vitro assay, phosphorylation of biotinylated PHAS-I with 32P-ATP. The assay is classed as biochemical. The settings on record: in vitro P38-alpha kinase inhibition; read-out: P38 alpha kinase IC50.
Broadly, the pIC50 is the IC50 on a negative log10 scale, so that one unit is a factor of ten. As for `CC(NS(=O)(=O)c1ccc(C#N)cc1)c1[nH]nc(-c2ccc(F)cc2)c1-c1ccncc1` (centres unmarked) [Example B-0656], the pIC50 is 8.15. The result for `CC(NS(=O)(=O)c1ccc(CNC(=O)c2ccccc2)s1)c1[nH]nc(-c2ccc(F)cc2)c1-c1ccncc1` (centres unmarked) [Example B-0657] reads 6.77; that for `Cc1c(C)c(S(=O)(=O)NC(C)c2[nH]nc(-c3ccc(F)cc3)c2-c2ccncc2)c(C)c2c1OC(C)(C)CC2` (centres unmarked) [Example B-0659], 5.58. For the molecule `CC(NS(=O)(=O)c1ccc(-c2ccccn2)s1)c1[nH]nc(-c2ccc(F)cc2)c1-c1ccncc1` (centres unmarked) [Example B-0660], the pIC50 is 7.06. Turning to `CC(NS(=O)(=O)c1cc(S(=O)(=O)c2ccccc2)cs1)c1[nH]nc(-c2ccc(F)cc2)c1-c1ccncc1` (centres unmarked) [Example B-0661], the pIC50 was above 7.00. The figure for `CC(NS(=O)(=O)c1ccc(-c2ccon2)s1)c1[nH]nc(-c2ccc(F)cc2)c1-c1ccncc1` (centres unmarked) [Example B-0662] is above 7.00; for `CC(NS(=O)(=O)c1cn(C)cn1)c1[nH]nc(-c2ccc(F)cc2)c1-c1ccncc1` (centres unmarked) [Example B-0663] it is 6.06; for `CC(NS(=O)(=O)c1ccc(S(=O)(=O)c2ccccc2)s1)c1[nH]nc(-c2ccc(F)cc2)c1-c1ccncc1` (centres unmarked) [Example B-0665] it is 6.33. The figure for `CC(NS(=O)(=O)c1ccccc1S(C)(=O)=O)c1[nH]nc(-c2ccc(F)cc2)c1-c1ccncc1` (centres unmarked) [Example B-0666] is 6.77; for `CC(NS(=O)(=O)c1cccc2cnccc12)c1[nH]nc(-c2ccc(F)cc2)c1-c1ccncc1` (centres unmarked) [Example B-0667] it is 6.08; for `Cc1ccc(S(C)(=O)=O)cc1S(=O)(=O)NC(C)c1[nH]nc(-c2ccc(F)cc2)c1-c1ccncc1` (centres unmarked) [Example B-0668] it is 6.57. The figure for `Cc1ccccc1C(=O)NC(C)c1[nH]nc(-c2ccc(F)cc2)c1-c1ccncc1` (centres unmarked) [Example B-0669] is 6.05; for `CC(NC(=O)c1ccc(Cl)cc1)c1[nH]nc(-c2ccc(F)cc2)c1-c1ccncc1` (centres unmarked) [Example B-0670] it is 5.50; for `CC(NC(=O)c1cc2ccccc2s1)c1[nH]nc(-c2ccc(F)cc2)c1-c1ccncc1` (centres unmarked) [Example B-0673] it is 5.07. Consider `CC(C)c1cc(C(C)C)c(C(=O)NC(C)c2[nH]nc(-c3ccc(F)cc3)c2-c2ccncc2)c(C(C)C)c1` (centres unmarked) [Example B-0674], for which the pIC50 was 5.55.

`CC(NC(=O)c1ccc(F)c(F)c1)c1[nH]nc(-c2ccc(F)cc2)c1-c1ccncc1` (centres unmarked) [Example B-0678]: the pIC50 is 6.42. The result for `CC(NC(=O)c1c(F)ccc(F)c1F)c1[nH]nc(-c2ccc(F)cc2)c1-c1ccncc1` (centres unmarked) [Example B-0680] reads 6.38; that for `CC(NC(=O)c1cccc(Cl)c1Cl)c1[nH]nc(-c2ccc(F)cc2)c1-c1ccncc1` (centres unmarked) [Example B-0681], 5.71. For `Cc1cc(C)c(C(=O)NC(C)c2[nH]nc(-c3ccc(F)cc3)c2-c2ccncc2)c(C)c1` (centres unmarked) [Example B-0682], the pIC50 is 6.12. On to `CC(NC(=O)c1cc(C(F)(F)F)ccc1F)c1[nH]nc(-c2ccc(F)cc2)c1-c1ccncc1` (centres unmarked) [Example B-0683], for which the pIC50 was 4.89. With `CC(NC(=O)c1c(F)cc(F)cc1F)c1[nH]nc(-c2ccc(F)cc2)c1-c1ccncc1` (centres unmarked) [Example B-0684], the pIC50 is 6.27. With `CC(NC(=O)c1ccc(C(F)(F)F)cc1F)c1[nH]nc(-c2ccc(F)cc2)c1-c1ccncc1` (centres unmarked) [Example B-0685], the pIC50 was 4.81. The figure for `CC(NC(=O)c1c(F)cccc1C(F)(F)F)c1[nH]nc(-c2ccc(F)cc2)c1-c1ccncc1` (centres unmarked) [Example B-0686] is 6.38; for `CC(NC(=O)c1ccc(F)c(C(F)(F)F)c1)c1[nH]nc(-c2ccc(F)cc2)c1-c1ccncc1` (centres unmarked) [Example B-0689] it is 4.84; for `CC(NC(=O)c1ccccc1Cl)c1[nH]nc(-c2ccc(F)cc2)c1-c1ccncc1` (centres unmarked) [Example B-0691] it is 6.80.

Turning to `CC(NC(=O)c1cccc(F)c1F)c1[nH]nc(-c2ccc(F)cc2)c1-c1ccncc1` (centres unmarked) [Example B-0695], the pIC50 is 6.64.

Consider `CC(NC(=O)c1c(Cl)cccc1Cl)c1[nH]nc(-c2ccc(F)cc2)c1-c1ccncc1` (centres unmarked) [Example B-0696], for which the pIC50 is 7.07.

In the case of `CC(NC(=O)c1cc(F)ccc1F)c1[nH]nc(-c2ccc(F)cc2)c1-c1ccncc1` (centres unmarked) [Example B-0697], the pIC50 is 6.35. Turning to `CC(NC(=O)c1cc(F)c(F)cc1F)c1[nH]nc(-c2ccc(F)cc2)c1-c1ccncc1` (centres unmarked) [Example B-0698], the pIC50 was 5.63. With `CC(NC(=O)c1c(F)cccc1F)c1[nH]nc(-c2ccc(F)cc2)c1-c1ccncc1` (centres unmarked) [Example B-0700], the pIC50 is 6.62. With `CC(NC(=O)c1cccc(Cl)c1)c1[nH]nc(-c2ccc(F)cc2)c1-c1ccncc1` (centres unmarked) [Example B-0702], the pIC50 was 7.44. The figure for `CC(NC(=O)c1ccccc1Br)c1[nH]nc(-c2ccc(F)cc2)c1-c1ccncc1` (centres unmarked) [Example B-0703] is 6.92; for `Cc1noc(C)c1C(=O)NC(C)c1[nH]nc(-c2ccc(F)cc2)c1-c1ccncc1` (centres unmarked) [Example B-0706] it is 6.36; for `O=S(=O)(NC(Cc1ccccc1)c1[nH]nc(-c2ccc(F)cc2)c1-c1ccncc1)c1ccc(F)cc1` (centres unmarked) [Example B-0707] it is 5.77. The figure for `O=S(=O)(NC(Cc1ccccc1)c1[nH]nc(-c2ccc(F)cc2)c1-c1ccncc1)c1ccccc1` (centres unmarked) [Example B-0708] is 5.68; for `CC(C)S(=O)(=O)NC(Cc1ccccc1)c1[nH]nc(-c2ccc(F)cc2)c1-c1ccncc1` (centres unmarked) [Example B-0709] it is 6.08; for `O=S(=O)(C=Cc1ccccc1)NC(Cc1ccccc1)c1[nH]nc(-c2ccc(F)cc2)c1-c1ccncc1` (centres unmarked) [Example B-0710] it is 5.70.

Regarding `O=S(=O)(Cc1ccccc1)NC(Cc1ccccc1)c1[nH]nc(-c2ccc(F)cc2)c1-c1ccncc1` (centres unmarked) [Example B-0711], the pIC50 was 5.70. The figure for `O=S(=O)(NC(Cc1ccccc1)c1[nH]nc(-c2ccc(F)cc2)c1-c1ccncc1)c1ccc(F)cc1F` (centres unmarked) [Example B-0712] is 5.54; for `O=S(=O)(NC(Cc1ccccc1)c1[nH]nc(-c2ccc(F)cc2)c1-c1ccncc1)C(F)(F)F` (centres unmarked) [Example B-0713] it is 5.37; for `O=S(=O)(NC(Cc1ccccc1)c1[nH]nc(-c2ccc(F)cc2)c1-c1ccncc1)c1ccccc1F` (centres unmarked) [Example B-0714] it is 5.43. Turning to `CCCCS(=O)(=O)NC(Cc1ccccc1)c1[nH]nc(-c2ccc(F)cc2)c1-c1ccncc1` (centres unmarked) [Example B-0716], the pIC50 is 5.34. On to `COc1ccc(S(=O)(=O)NC(Cc2ccccc2)c2[nH]nc(-c3ccc(F)cc3)c2-c2ccncc2)cc1` (centres unmarked) [Example B-0719], for which the pIC50 is 5.47. As for `O=S(=O)(NC(Cc1ccccc1)c1[nH]nc(-c2ccc(F)cc2)c1-c1ccncc1)c1cccs1` (centres unmarked) [Example B-0720], the pIC50 is 5.89. The result for `Cc1ccc(S(=O)(=O)NC(Cc2ccccc2)c2[nH]nc(-c3ccc(F)cc3)c2-c2ccncc2)cc1` (centres unmarked) [Example B-0721] reads 5.42; that for `CC(C)NC(=O)NC(Cc1ccccc1)c1[nH]nc(-c2ccc(F)cc2)c1-c1ccncc1` (centres unmarked) [Example B-0723], 6.33.

Consider `O=C(NCc1ccccc1)NC(Cc1ccccc1)c1[nH]nc(-c2ccc(F)cc2)c1-c1ccncc1` (centres unmarked) [Example B-0725], for which the pIC50 is 5.01.
